Source: US20230399341A1, “7-PHENYL SUBSTITUTED 2-AMINOQUINAZOLINE INHIBITORS OF HPK1” (MERCK SHARP & DOHME LLC, priority 2020, published 2023)
pIC50: −log10 of the molar value.

target: T1, Human HPK1, catalytic domain (Homo sapiens, UniProt Q92918); assay: HPK1-SLP76 TR-FRET Assay; type: biochemical; settings: 75 pM HPK1, ATP 10 uM, SLP76 10 nM, 30 min pre-incubation, 60 min reaction
T1 sequence (Q92918 1-346): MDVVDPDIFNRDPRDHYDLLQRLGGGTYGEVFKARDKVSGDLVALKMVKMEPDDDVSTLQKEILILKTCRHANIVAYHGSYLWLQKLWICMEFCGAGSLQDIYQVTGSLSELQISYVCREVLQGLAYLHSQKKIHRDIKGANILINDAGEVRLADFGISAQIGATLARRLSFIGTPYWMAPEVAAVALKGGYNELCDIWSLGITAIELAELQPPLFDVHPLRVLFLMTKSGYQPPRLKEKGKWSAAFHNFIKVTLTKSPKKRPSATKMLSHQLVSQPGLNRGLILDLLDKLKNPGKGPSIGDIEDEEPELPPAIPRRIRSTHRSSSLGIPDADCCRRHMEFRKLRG

| SMILES | pIC50 |
| --- | --- |
| Cc1c(-c2c(F)c(N)c3cnc(Nc4ccc5c(c4)CN(C)CC54CC4)nc3c2C)cnc2c1NCCO2 [Compound 2-110, (+ or −)-6-fluoro-8-methyl-N2-(2′-methyl-2′,3′-dihydro-1′H-spiro[cyclopropane-1,4′-isoquinolin]-7′-yl)-7-(8-methyl-2,3-dihydro-1H-pyrido[2,3-b][1,4]oxazin-7-yl)quinazoline-2,5-diamine] | 10.15 |
| CCS(=O)(=O)Cc1ccc(Nc2ncc3cc(F)c(-c4cnc5c(c4C)NCCO5)cc3n2)cc1 [Compound 1-134, N-{4-[(ethylsulfonyl)methyl]phe-nyl}-6-fluoro-7-(8-methyl-2,3-dihydro-1H-pyrido[2,3-b][1,4]oxazin-7-yl)quinazolin-2-amine] | 10.37 |
| Cc1c(-c2cc3nc(Nc4cccnc4)ncc3c(N)c2F)cnc2c1NCCO2 [Compound 2-9, 6-fluoro-7-(8-methyl-2,3-dihydro-1H-pyrido[2,3-b][1,4]oxazin-7-yl)-N~2~- (pyridin-3-yl)quinazoline-2,5-diamine] | 9.89 |
| CC(=O)N1CCCc2cc(Nc3ncc4c(N)c(F)c(-c5cnc6c(c5C)NCCO6)cc4n3)ccc21 [Compound 2-7, 1-[6-{[5-amino-6-fluoro-7-(8-methyl-2,3-dihydro-1H-pyrido[2,3-b][1,4]oxazin-7-yl)quinazolin-2-yl]amino}-3,4-dihydroquinolin-1(2H)-yl]ethan-1-one] | 9.95 |
| Cc1c(-c2c(F)c(N)c3cnc(Nc4cc5c(cc4F)CCN(C)C5)nc3c2Cl)cnc2c1NCCO2 [Compound 2-184, (+ and −)-8-chloro-6-fluoro-N~2~-(6-fluoro-2-methyl-1,2,3,4-tetrahydroisoquinolin-7-yl)-7-(8-methyl-2,3-dihydro-1H-pyrido[2,3-b][1,4]oxazin-7-yl)quinazoline-2,5-diamine] | 8.44 |
| Cc1c(-c2cc3nc(Nc4cc5c(cn4)CCN(C)C5)ncc3c(N)c2F)cnc2c1NCCO2 [Compound 2-142, 6-fluoro-7-(8-methyl-2,3-dihydro-1H-pyrido[2,3-b][1,4]oxazin-7-yl)-N~2~- (6-methyl-5,6,7,8-tetrahydro-2,6-naphthyridin-3-yl)quinazoline-2,5-diamine] | 8.91 |
| COc1cc2c(cc1Nc1ncc3ccc(-c4cccc5c4CCNC5)cc3n1)CN(C)CC2 [Compound 1-6, N-(6-methoxy-2-methyl-1,2,3,4-tetrahydroisoquinolin-7-yl)-7-(1,2,3,4-tetrahydroisoquinolin-5-yl)quinazolin-2-amine] | 7.04 |
| COc1cc2c(cc1Nc1ncc3c(N)c(F)c(-c4cnc5ncsc5c4)cc3n1)CN(C)CC2 [Compound 2-47, 6-fluoro-N~2~-(6-methoxy-2-methyl-1,2,3,4-tetrahydroisoquinolin-7-yl)-7-([1,3]thiazolo[4,5-b]pyridin-6-yl)quinazoline-2,5-diamine] | 7.61 |
| COc1cc2c(cc1Nc1ncc3c(N)c(F)c(-c4cnc5c(c4C)NCCO5)c(Cl)c3n1)CN(C)CC2(C)C [Compound 2-104, 8-chloro-6-fluoro-N2-(6-methoxy-2,4,4-trimethyl-1,2,3,4-tetrahydroisoquinolin-7-yl)-7-(8-methyl-2,3-dihydro-1H-pyrido[2,3-b][1,4]oxazin-7-yl)quinazoline-2,5-diamine] | 9.10 |
| Cc1c(-c2cc3nc(Nc4ccc(CC(C)(C)O)cc4)ncc3c(N)c2F)cnc2c1NCCO2 [Compound 2-178, 1-(4-{[5-amino-6-fluoro-7-(8-methyl-2,3-dihydro-1H-pyrido[2,3-b][1,4]oxazin-7-yl)quinazolin-2-yl]amino}phenyl)-2-methylpropan-2-ol] | 10.03 |
| Cc1c(-c2cc3nc(Nc4ccc(C5CCN(C)C5=O)cc4)ncc3cc2F)cnc2c1NCCO2 (single isomer, unassigned) [Compound 1-127, (R of S)-3-(4-{[6-fluoro-7-(8-methyl-2,3-dihydro-1H-pyrido[2,3-b][1,4]oxazin-7-yl)quinazolin-2-yl]amino}phenyl)-1-methylpyrrolidin-2-one] | 9.02 |
| CC(=O)N1CCCC1c1ccc(Nc2ncc3c(N)c(F)c(-c4cnc5c(c4C)NCCO5)cc3n2)cc1 (single isomer, unassigned) [Compound 2-28, (R or S)-1-[2-(4-{[5-amino-6-fluoro-7-(8-methyl-2,3-dihydro-1H-pyrido[2,3-b][1,4]oxazin-7-yl)quinazolin-2-yl]amino}phenyl)pyrrolidin-1-yl]ethan-1-one] | 9.83 |
| COc1cc2c(cc1Nc1ncc3c(N)c(F)c(-c4cnc5c(c4C)NCCO5)c(Cl)c3n1)CN(C(C)C)CC2 [Compound 2-106, (+ or −)-8-chloro-6-fluoro-N2-(2-isopropyl-6-methoxy-1,2,3,4-tetrahydroisoquinolin-7-yl)-7-(8-methyl-2,3-dihydro-1H-pyrido[2,3-b][1,4]oxazin-7-yl)quinazoline-2,5-diamine] | 8.24 |
| Cc1c(-c2cc3nc(Nc4cnc5c(c4)CN(C(C)C)CC5)ncc3c(N)c2F)cnc2c1NCCO2 [Compound 2-175, 6-fluoro-7-(8-methyl-2,3-dihydro-1H-pyrido[2,3-b][1,4]oxazin-7-yl)-N~2~- [6-(propan-2-yl)-5,6,7,8-tetrahydro-1,6-naphthyridin-3-yl]quinazoline-2,5-diamine] | 10.53 |
| Cc1c(-c2cc3nc(Nc4ccc5c(c4)CN(C)CC5(F)F)ncc3c(N)c2F)cnc2c1NCCO2 [Compound 2-154, N~2~-(4,4-difluoro-2-methyl-1,2,3,4-tetrahydroisoquinolin-7-yl)-6-fluoro-7-(8-methyl-2,3-dihydro-1H-pyrido[2,3-b][1,4]oxazin-7-yl)quinazoline-2,5-diamine] | 9.29 |
| Cc1c(-c2cc3nc(Nc4ccc5c(c4)CCN(C)C5)ncc3c(N)c2F)cnc2c1NCCO2 [Compound 2-158, 6-fluoro-7-(8-methyl-2,3-dihydro-1H-pyrido[2,3-b][1,4]oxazin-7-yl)-N~2~- (2-methyl-1,2,3,4-tetrahydroisoquinolin-6-yl)quinazoline-2,5-diamine] | 10.60 |
| CNC(=O)C1(c2ccc(Nc3ncc4c(N)c(F)c(-c5cnc6c(c5C)NCCO6)cc4n3)cc2)CCC1 [Compound 2-82, 1-(4-((5-amino-6-fluoro-7-(8-methyl-2,3-dihydro-1H-pyrido[2,3-b][1,4]oxazin-7-yl)quinazolin-2-yl)amino)phenyl)-N-methylcyclobutane-1-carboxamide] | 10.51 |
| COc1cc2c(cc1Nc1ncc3c(N)c(F)c(-c4cnc5c(c4C)NCCO5)c(Cl)c3n1)CN(C)CC2 [Compound 2-94, (+ or −)-8-chloro-6-fluoro-N~2~-(6-methoxy-2-methyl-1,2,3,4-tetrahydroisoquinolin-7-yl)-7-(8-methyl-2,3-dihydro-1H-pyrido[2,3-b][1,4]oxazin-7-yl)quinazoline-2,5-diamine] | 8.24 |
| COc1c(Nc2ncc3c(N)c(F)c(-c4cnc5c(c4C)NCCO5)cc3n2)ccc2c1CCNC(=O)C2 [Compound 2-21] | 6.31 |
| Cc1c(-c2ccc3cnc(Nc4ccc(CS(=O)(=O)C(C)C)cc4)nc3c2)cnc2c1NCCO2 [Compound 1-129, N-(4-((isopropylsulfonyl)methyl)phenyl)-7-(8-methyl-2,3-dihydro-1H-pyrido[2,3-b][1,4]oxazin-7-yl)quinazolin-2-amine] | 10.04 |
| CNC(=O)c1ccc(-c2ccc3cnc(Nc4cc5c(cc4OC)CCNC5)nc3c2)cn1 [Compound 1-28, 5-{2-[(6-methoxy-1,2,3,4-tetrahydroisoquinolin-7-yl)amino]quinazolin-7-yl}-N-methylpyridine-2-carboxamide] | 6.70 |

Now from value to molecule:

| pIC50 | SMILES |
| --- | --- |
| 7.34 | COc1cc2c(cc1Nc1ncc3ccc(N4C(=O)OCC4(C)C)cc3n1)CN(C)CC2 [Compound 3-6, 3-{2-[(6-methoxy-2-methyl-1,2,3,4-tetrahydroisoquinolin-7-yl)amino]quinazolin-7-yl}-4,4-dimethyl-1,3-oxazolidin-2-one] |
| 6.42 | COc1cc2c(cc1Nc1ncc3ccc(OCC4CCNCC4)cc3n1)CN(C)CC2 [Compound 4-3, N-(6-methoxy-2-methyl-1,2,3,4-tetrahydroisoquin-olin-7-yl)-7-[(piperidin-4-yl)methoxy]quinazolin-2-amine] |
| 7.61 | C[C@@H]1COC(=O)N1c1cc(N)c2cnc(Nc3ccc(S(C)(=O)=O)cc3)nc2c1 [Compound 3-77, (R)-3-(5-amino-2-((4-(methyl-sulfonyl)phenyl)amino)quinaz-olin-7-yl)-4-methyloxazolidin-2-one] |
| 6.10 | COc1cc2c(cc1Nc1ncc3ccc(N4CCn5c(C)nnc5C4)cc3n1)CN(C)CC2 [Compound 3-57, N-(6-methoxy-2-methyl-1,2,3,4-tetrahydroisoquinolin-7-yl)-7-(3-methyl-5,6-dihydro[1,2,4]-triazolo[4,3-a]pyrazin-7(8H)-yl)quinazolin-2-amine] |
| 6.80 | COc1cc2c(cc1Nc1ncc3ccc(OCC4CCN(c5cncc(C)n5)CC4)cc3n1)CN(C)CC2 [Compound 4-4, N-(6-methoxy-2-methyl-1,2,3,4-tetrahydroisoquin-olin-7-yl)-7-{[1-(6-methyl-pyrazin-2-yl)piperidin-4-yl]methoxy}quinazolin-2-amine] |
| 6.87 | COc1cc2c(cc1Nc1ncc3ccc(NCC(=O)N4CCCC4)cc3n1)CN(C)CC2 [Compound 3-65, 2-({2-[(6-methoxy-2-methyl-1,2,3,4-tetrahydroisoquinolin-7-yl)amino]quinazolin-7-yl}-amino)-1-(pyrrolidin-1-yl)ethan-1-one] |
| 7.29 | COc1cc2c(cc1Nc1ncc3ccc(NCc4ccc5c(c4)C(=O)NC5)cc3n1)CN(C)CC2 [Compound 3-28, 6-[({2-[(6-methoxy-2-methyl-1,2,3,4-tetrahydroisoquinolin-7-yl)amino]quinazolin-7-yl}-amino)methyl]-2,3-dihydro-1H-isoindol-1-one] |
